From patent US20040037775A1, “Leukocyte internalized peptide-drug conjugates” (priority 2000, published 2004) come the findings set out here.

In data set [1] the test system is L1210-1565 cells. Description: cell cycle analysis in L1210-1565 cells (PI staining, flow cytometry). It is filed as cell-based, mouse. To be noted: 1 μM. As for the experimental part: The cell pellets were resuspended and fixed in 2.5 mL of ice-cold 70% ethanol. These pellets were stored at 4° C. before analysis using flow cytometry.
PI staining of fixed cell pellets for cell cycle analysis: One day prior to analysis, cells were centrifuged at 450×g (2500 rpm) for 5 min at room temperature and the pellets re-suspended in 0.8 mL PBS followed by addition of 0.1 mL each of 1 mg/mL ribonuclease A (RNase A; Sigma) and 0.4 mg/mL PI (Sigma). RNA digestion by RNase A is required to avoid the intercalation of PI into the double-stranded regions of this nucleic acid, which interfers with the measurement of DNA. After a 30 min incubation at 37° C., samples were wrapped in aluminum foil and stored at 4° C. overnight. Cell cycle analysis was performed using a Coulter EPICS Elite ESP (Beckman Coulter, Buckinghamshire, UK) equipped with an argon-ion laser tuned to 488 nm and red fluorescence collected at 630 nm. DNA histograms were produced and analyzed using the Winmidi software package (v.2.8, written by J.Trotter, University of Cardiff, UK).
For orientation: In flow cytometry, cells or beads pass a laser one at a time.

Data set [2] has as its system L1210 mouse leukemia cells. Put plainly: cells. It is filed as cell-based. As for the experimental part: (§1) The cytotoxicity of MTX-peptide conjugates was evaluated in different cell lines, lincluding Molt-3 and L1210 T-cells, and KB epithelial cells. […] After 72 h of growth, the relative numbers of viable cells were determined according to the manufacture's protocols for measuring cytotoxicity using a Dojindo Cytotoxicity Assay Cell counting Kit-8 (CCK-8). To measure the cell viability, 10 μL of CCK-8 was added to each well and the plate was incubated for 4 h. After incubation, the absorbance at 450 nm was measured using a UV plate reader. Cell growth in the presence of different drug concentrations was calculated relative to the value obtained in the absence of the drug. […] Serial dilutions of compounds were prepared in un-supplemented medium, and 110 μL of drug solution was aliquoted in duplicate into 900 μL cell suspensions. Control flasks were treated with 110 μL of un-supplemented medium. Cells were incubated under standard conditions for 48 h, sufficient to allow control cells to divide approximately four times. Growth inhibition was determined by counting the cells on a Z2 model Coulter Counter (Coulter Electronics Ltd, Luton, Beds, UK). The IC50 values were calculated using Graphpad Prism software (Graphpad Software, San Diego, Calif.). KB MTT Assay: KB cells were seeded in Falcons® 96 well plates (Becton-Dickinson Labware Europe, France) at a density of 1,500 cells/well in a volume of 0.18 mL culture medium and incubated under standard culture conditions for 24 h after seeding to allow entry into the exponential phase of cell growth. […] In each assay condition, control cells were treated with 20 μL of un-supplemented medium instead of drug. Cells were incubated for 96 h to allow control cells to divide approximately four times before cell viability was determined by MTT assay.

In data set [3] the test system is collagen induced rheumatoid arthritis (CIA). Description: collagen induced rheumatoid arthritis (CIA) animal model. It is filed as in vivo, mice. Conditions: for mice showing signs of joint eburnation: histopathologic examination; for Total joint damage (TJD): sum of histopathology scores (0 to 3) for each limb; for arthritis index score for the limb: i.v. once daily after day 35. The protocol:
[…] received intravenous injections of saline while another treatment group received MTX injections (molar equivalent dosage to conjugate) for five days. Clinical arthritis symptoms were evaluated weekly for up to sixteen weeks. Arthritis development was evaluated by several parameters, including the percent of animals acquiring arthritis, arthritis index (AI) score of limbs, changes in paw-volumes and histologic score for the joint.
Mice injected with collagen adjuvant developed pronounced inflammation of the joints, as evidenced by swelling and erythema. […] Total joint damage (TJD) was calculated as the sum the scores for each limb assigned by the pathologist on a scale of 0 to 3 (where 0 is no change and 3 is gross histological change).

In data set [4] the test system is IL-6 production. Description: IL-6 production in TNF-α stimulated HCAEC monolayers. Conditions: 0.001-100 μM, 24 h. It is filed as cell-based. The protocol:
The cell monolayers were cultured in vitro with the test compounds (0.001 to 100 μM) in the presence of TNF-α for 24 h. Results are expressed as the percentage of cytokine relative to the positive control or non-treated monolayers (the baseline 100% cytokine production. The control levels (mean±SE) were as follows: IL-6: 3.4±0.17 ng/mL, IL-8: 199.5±9.13 ng/mL.
It is well known that some anti-inflammatory agents can modulate the secretion of inflammatory cytokines. […] MTX-peptide(s) only begins to effectively reduce the IL-8 production at ≧0.1 μM. At ≦1 μM, neither cLAB.L nor cLBE.L affected the IL-8 production (FIG. 8B).

For data set [5], the system named is dihydrofolate reductase enzyme (DHFR). Put plainly: DHFR inhibition assay (spectrophotometric NADPH loss, Dixon plots). Format: biochemical. To be noted: for Ymax: from Dixon plots. As for the experimental part:
Into a 2.0 mL cuvette, a 1.0 mL solution of 0.11 mM β-NADPH and 33 μL of 2.3 mM DHFA were aliquoted and allowed to equilibrate. […] To begin the assay, 33 μL of DHFR (0.12-0.25 unit/mL with 0.1% BSA) was added to the reaction mixture. The absorbance of the reaction mixture was then recorded continuously for 5 min at 340 nm and the enzyme activity was determined by the rate of NADPH loss. Enzyme activity was determined for three different fixed concentrations of substrate (0.19, 1.9 and 10.0 mM DHFA).

Data set [6] concerns KB epithelial cells. Description: KB MTT assay (96 h). It is filed as cell-based, human. The protocol:
Human KB epithelial l cells: The human KB epithelial cell line was a gift from Dr Gerrit Jansen (University Free Hospital, Amsterdam, Netherlands) and was developed to overexpress the membrane folate binding protein (mFBP). Cells were cultured in RPMI 1640 medium without folic acid and supplemented with 10% heat inactivated dialyzed FCS (50 mL volume), 0.2 mL of 50 μg/mL gentamicin, 1 mL of 50 μg/mL amphotericin B, and 5 mL of 200 mM L-glutamine. The folate source, 20 nM (R,S)-LV, was added to supply cells with adequate growth conditions.
The cytotoxicity of MTX-peptide conjugates was evaluated in different cell lines, lincluding Molt-3 and L1210 T-cells, and KB epithelial cells. […] After 72 h of growth, the relative numbers of viable cells were determined according to the manufacture's protocols for measuring cytotoxicity using a Dojindo Cytotoxicity Assay Cell counting Kit-8 (CCK-8). To measure the cell viability, 10 μL of CCK-8 was added to each well and the plate was incubated for 4 h. After incubation, the absorbance at 450 nm was measured using a UV plate reader. Cell growth in the presence of different drug concentrations was calculated relative to the value obtained in the absence of the drug. […] Growth inhibition was determined by counting the cells on a Z2 model Coulter Counter (Coulter Electronics Ltd, Luton, Beds, UK). The IC50 values were calculated using Graphpad Prism software (Graphpad Software, San Diego, Calif.). […] Cells were incubated for 96 h to allow control cells to divide approximately four times before cell viability was determined by MTT assay.
The number of viable cells after a 96-h incubation was determined by assessing their ability to reduce MTT ([…]). […] The absorbance of the solution in each well was measured at 540 nm on a MCC/340 model Titertak Multiscan® plate reader (Labsystems/Flow Laboratories, Oxfordshire, UK). The results were analyzed using Ascent Research software v.2.1 (Labsystems, UK).
Background: Tetrazolium dyes change colour on reduction, which living cells bring about.

The test system of data set [7] is Molt-3 T-cells. Put plainly: cells. It is filed as cell-based, human. The protocol:
as §1

Data set [8] addresses T1, LFA-1 (Homo sapiens, UniProt P20701).
T1 construct: endogenous in cells
Put plainly: binding to LFA-1 on Molt-3 T-cells (reduction of FITC anti-CD11a antibody binding, flow cytometry). Conditions: 1, 10 or 100 μM, 45 min, 4° C. The protocol: The binding of MTX-peptide conjugates to LFA-1 in response to LFA-1 activation was evaluated. As necessary, cells were activated with 10% v/v phorbol 12-myristate-13-acetate (PMA) containing medium to a final concentration of 2 μM PMA and incubated for 16 h. […] T-cells were centrifuged for 3 min at 1800 rpm, the supernatant was decanted by flicking off excess liquid, and the cells were re-suspended in 500 μL of PBS. The cells were then re-centrifuged, supernatant was removed, and cells were re-suspended again in 150 μL of PBS/BSA 1%. Next, 50 μL of an FITC-labeled anti-CD11a antibody (clone 38, 10 μg/L) was added and incubated for 45 min at 4° C. followed by washing. After the 45 min of incubation with FITC-labeled antibody, cell samples were transferred to Eppendorf tubes and centrifuged at 3000 g for 3 min. The supernatant was decanted, and the pellet was washed twice with 10 mM HEPES/PBS. The cells were then fixed with ice-cold 2% w/v paraformaldehyde/PBS for 20 min. Samples were analyzed using a Becton-Dickinson FACScan flow cytometer with 3.2.1 fl software for data analysis and acquisition.

Data set [9] deals with T2, Thymidine synthase (TS) (Mus musculus, UniProt P07607).
T2 construct: endogenous in cells; host or cells: L1210-1565 mouse leukemia cells
T2 sequence (P07607 whole entry): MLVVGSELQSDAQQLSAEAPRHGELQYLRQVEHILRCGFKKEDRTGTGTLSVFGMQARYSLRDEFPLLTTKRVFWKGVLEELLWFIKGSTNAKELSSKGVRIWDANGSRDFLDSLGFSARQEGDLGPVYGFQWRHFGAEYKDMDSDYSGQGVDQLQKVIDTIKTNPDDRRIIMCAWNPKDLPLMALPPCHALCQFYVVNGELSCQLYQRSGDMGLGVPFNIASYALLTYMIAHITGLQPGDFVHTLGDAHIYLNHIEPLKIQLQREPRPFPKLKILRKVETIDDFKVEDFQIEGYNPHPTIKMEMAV
Format: cell-based.
Protocol: An equivalent amount of unsupplemented medium was added to control flasks. On the day of each experiment, a fresh solution of unlabelled deoxyuridine (dUrd) was prepared in deionized H2O (dH2O) and was added to a stock solution of [5-^3H]-dUrd (22 Ci/mmole) to give a concentration of 300 μM and a specific activity of 3.3 Ci/mmole (˜7260 dpm/pmole).
To begin the assay, the 300 μM [5-^3H]-dUrd stock solution was diluted ten fold in deionized H2O and 50 μL of this solution was added to each culture flask to give a final concentration of 0.03 μM. The rate of ^3H2O formation was measured over a 1 h period (20, 40 and 60 min) by removing a 3×0.4 mL aliquot of the cells in culture medium and mixing it with 0.4 mL of ice-cold 1.0 M perchloric acid (PCA; Sigma) in microfuge tubes. […] For each time point, radioactivity was determined by counting each vial on the tritium channel of a Tri-Carb 2000CA Model Liquid Scintillation Analyzer (Canberra Packard, Pangbourne, Berkshire, UK). Background radioactivity was assessed by cooling a flask of untreated cells on ice before the start of each experiment and adding 50 mL of the [5-^3H]-dUrd solution. Aliquots of 3×0.4 mL aliquots of cells in culture medium were added to 1.0 M PCA-containing microfuge tubes and the rate of ^3H2O release was analyzed as described above. […]

Structures are written as SMILES. Read-outs that look alike come from different tables or passages of the source. Starred links: 1 amine or outer side, 2 acyl side, 3 side chain; linkers in the order of their positions; H or OH if unused. Positions of bridges follow the written chain, without caps; N, C: chain ends. Non-standard residues stand in square brackets, D forms with d. Residues, ends and D or L forms follow the SMILES beside them. *: point of attachment. DAMPA = CN(Cc1cnc2nc(N)nc(N)c2n1)c1ccc(C(=O)*)cc1; γGlu = O=C(O)[C@H](CCC(=O)[*:2])N[*:1]; Pen = CC(C)(S)[C@H](N)C(=O)O Where only a bound is given, the exact number is not on record here.

T1 sequence (P20701 26-1170): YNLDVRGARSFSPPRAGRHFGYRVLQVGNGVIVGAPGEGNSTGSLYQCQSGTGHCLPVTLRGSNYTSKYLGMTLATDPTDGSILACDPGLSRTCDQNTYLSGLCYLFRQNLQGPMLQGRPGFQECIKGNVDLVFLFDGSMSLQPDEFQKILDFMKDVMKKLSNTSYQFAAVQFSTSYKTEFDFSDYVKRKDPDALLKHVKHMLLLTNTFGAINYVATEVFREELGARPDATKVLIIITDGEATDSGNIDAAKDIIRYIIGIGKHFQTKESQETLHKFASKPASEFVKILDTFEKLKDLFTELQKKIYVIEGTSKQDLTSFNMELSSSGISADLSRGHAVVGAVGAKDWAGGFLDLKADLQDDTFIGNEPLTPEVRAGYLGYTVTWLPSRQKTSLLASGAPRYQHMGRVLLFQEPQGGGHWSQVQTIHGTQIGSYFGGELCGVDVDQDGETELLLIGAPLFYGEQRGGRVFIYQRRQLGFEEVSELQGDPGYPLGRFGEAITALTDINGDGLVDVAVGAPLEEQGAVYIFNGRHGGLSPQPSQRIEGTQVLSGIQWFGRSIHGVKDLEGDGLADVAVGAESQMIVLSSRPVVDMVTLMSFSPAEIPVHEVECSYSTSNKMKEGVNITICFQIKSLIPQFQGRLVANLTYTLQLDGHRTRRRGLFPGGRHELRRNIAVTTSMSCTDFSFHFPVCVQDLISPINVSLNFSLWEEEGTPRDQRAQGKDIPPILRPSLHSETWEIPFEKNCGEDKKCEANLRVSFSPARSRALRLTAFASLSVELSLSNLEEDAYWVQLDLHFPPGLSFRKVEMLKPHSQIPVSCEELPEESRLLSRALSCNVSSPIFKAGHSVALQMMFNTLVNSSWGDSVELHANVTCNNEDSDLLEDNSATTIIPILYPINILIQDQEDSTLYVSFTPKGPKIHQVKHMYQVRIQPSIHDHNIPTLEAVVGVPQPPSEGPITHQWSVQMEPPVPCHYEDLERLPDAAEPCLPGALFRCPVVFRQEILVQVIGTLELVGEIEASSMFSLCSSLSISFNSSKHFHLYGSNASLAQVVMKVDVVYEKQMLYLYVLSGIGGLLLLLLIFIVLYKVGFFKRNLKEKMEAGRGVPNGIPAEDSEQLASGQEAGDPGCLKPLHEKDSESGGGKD
T1 sequence (P05107 23-769 partner): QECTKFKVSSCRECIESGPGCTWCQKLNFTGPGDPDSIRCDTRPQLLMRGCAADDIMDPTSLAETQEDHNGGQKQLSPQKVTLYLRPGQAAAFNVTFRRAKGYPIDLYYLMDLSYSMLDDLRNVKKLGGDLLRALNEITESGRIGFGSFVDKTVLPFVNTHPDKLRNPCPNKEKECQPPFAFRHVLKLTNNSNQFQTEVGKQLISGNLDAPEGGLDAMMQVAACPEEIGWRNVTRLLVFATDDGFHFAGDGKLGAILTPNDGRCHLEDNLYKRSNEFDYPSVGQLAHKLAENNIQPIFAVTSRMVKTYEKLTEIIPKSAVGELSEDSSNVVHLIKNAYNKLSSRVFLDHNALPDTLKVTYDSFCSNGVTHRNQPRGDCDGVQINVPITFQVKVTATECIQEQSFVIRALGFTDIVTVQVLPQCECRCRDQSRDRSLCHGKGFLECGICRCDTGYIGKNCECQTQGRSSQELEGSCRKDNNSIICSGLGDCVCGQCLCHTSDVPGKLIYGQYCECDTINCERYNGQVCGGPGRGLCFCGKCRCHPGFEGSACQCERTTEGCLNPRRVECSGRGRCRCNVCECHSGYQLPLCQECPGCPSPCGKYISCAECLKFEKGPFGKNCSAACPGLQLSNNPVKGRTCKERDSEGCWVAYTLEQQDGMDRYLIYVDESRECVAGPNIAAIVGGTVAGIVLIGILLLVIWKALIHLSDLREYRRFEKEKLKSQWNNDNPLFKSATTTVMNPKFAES

In the case of `CN(Cc1cnc2nc(N)nc(N)c2n1)c1ccc(C(=O)N[C@@H](CCC(=O)O)C(=O)O)cc1` [MTX, methotrexate, reference compound], the “time of treatment after which arrest of cells in S phase was seen” value in data set [1] stood at 24 h. For the same compound, the IC50 – broadly, the concentration that gives 50% inhibition – was determined as 14 ± 4 nM in [2] (Mus musculus, L1210, 48 h, read-out: IC50 L1210 mouse leukemia cells); 27 nM in data set [6] (Homo sapiens, Epithelial cell); 61 ± 20 nM in data set [7] (Homo sapiens, MOLT-3, 72 h, read-out: IC50 Molt-3 T-cells). The “mice showing signs of joint eburnation” value in data set [3] is recorded as 44%. In data set [3], the “Total joint damage (TJD)” value was found to be 7.4±2.5. In addition, the “block of IL-6 production” value in data set [4] is “partly block the production of IL-6”. In addition, in data set [5], the Ymax is on record as 4.30 ± 0.42 × 10^−4.
For `CC(C)C[C@@H]1NC(=O)[C@H](C(C)C)NC(=O)[C@H](CO)NC(=O)CNC(=O)CNC(=O)[C@H](CCCNC(=N)N)NC(=O)[C@@H]2CCCN2C(=O)[C@@H](NC(=O)CC[C@H](NC(=O)c2ccc(N(C)Cc3cnc4nc(N)nc(N)c4n3)cc2)C(=O)O)C(C)(C)SSC[C@@H](C(=O)O)NC(=O)CNC(=O)[C@H]([C@@H](C)O)NC(=O)[C@H](C(C)C)NC1=O` [MTX-cIBR] ({DAMPA-γGlu}-[Pen]PRGGSVLVTGC-OH; disulfide 1-12), the “time of treatment after which arrest of cells in S phase was seen” value in data set [1] came out at 36 h. Also, the IC50 in data set [2] (48 h) was 5500 ± 2000 nM; in data set [6], above 10000 nM; in data set [7] (72 h), 2750 ± 800 nM. In addition, the “mice showing signs of joint eburnation” value in data set [3] amounted to 10%. Besides, the “Total joint damage (TJD)” value in data set [3] is 4.4±2.1. In addition, the “arthritis index score for the limb” value in data set [3] (week 8) is given as “two”; in [3] (week 12), “zero”. Moreover, the “Km relative to that of MTX” value in [5] was around 15 fold. For the same compound, the Ymax in data set [5] is listed as 4.10 ± 0.18 × 10^−4. Further, the “binding to the LFA-1 receptor” value in [8] is “specific to the LFA-1 receptor”. The “ability to inhibit TS after wash-out” value in data set [9] is “retained more activity than the linear conjugate”. In data set [9] (3 μM, 4 h incubation), the “inhibition of 3H2O production by TS, continuous exposure” value is given as “inhibited to a similar degree”.
